Measurements published in patent US7705203B2, “Benzoate inductible promoters” (Purdue Research Foundation, priority 2002, dated 2010).

Experiments:
bphA gene = experiment: RNA (Northern) blot of bphA gene transcription in mycelia; assay type: cell-based, Aspergillus niger
Protocol: The time course gene expression induction was examined by analyzing total RNA at different times after adding benzoic acid. Northern (RNA) blots were carried out using total RNA extracted from mycelia grown for different periods of time in the presence of benzoic acid. Initially, the fungus was inoculated in CM medium (Pontecorvo (1953) Adv. Genet. 5: 141-238) for 24 hours, transferred to benzoate-containing medium (0.1% w/v) for different times, and total RNA was extracted using the Rneasy Plant Total RNA kit (Qiagen Inc, Valencia, Calif.) according to the manufacturer's instructions. Total RNA was resolved on a formaldehyde-agarose gel and transferred to a Hybond-N nylon membrane (Amersham Life Sci. Inc, Arlington Heights, Ill.). Radiolabeled BPH probe was allowed to hybridize to the membrane, as described above. Northern blot methods were also carried out as recommended (Amersham).
Different benzoate concentrations and inducers were used to better characterize the inducibility of the bphA gene. Gene expression was assayed by Northern blots. Benzoate 4-hydroxylase activity is also assessed by enzymatic assays to confirm the inducibility at the transcriptional level described by Van Gorcom et al. ((1990) Mol. Gen. Genet. 223, 192-197). Inducibility is also verified by reverse transcription of mRNAs produced under induction conditions.
To verify the inducibility of the bphA gene by benzoic acid, A. niger was inoculated in complete medium and grown for 24 hours before being transferred to fresh medium containing 0.1% benzoic acid. Mycelia were harvested after different periods of induction, and total RNA was extracted.

BRE = experiment: Activation of BRE fused to GFP in fungal protoplasts (surface receptor test); assay type: cell-based
Protocol: While not necessary to understand to practice the invention, a more complicated mechanism of induction may include a surface receptor that binds to benzoate and which then initiates either some kind of signal transduction cascade or the release of a TF that then culminates in the activation of the BPH promoter (FIGS. 12C and D). The hypothesis of a surface receptor was tested by using the p-NH2-benzoate coupled to agarose (as described above) as a non-cleavable external probe. Fungal protoplasts containing the BRE fused to GFP were then prepared, and activation of the BRE (production of the GFP marker) by addition of the agarose-immobilized benzoate derivative to the fungal protoplasts was scored. […] In order to investigate whether the disparity of size between the larger agarose beads and fungal protoplasts may have caused steric problems in binding of the inducer, smaller ligands still incapable of uptake are constructed and utilized to confirm a non-membrane surface location.
The hypothesis of a surface receptor was tested by using the p-NH2-benzoate coupled to agarose (as described above) as a non-cleavable external probe. Fungal protoplasts containing the BRE fused to GFP were then prepared, and activation of the BRE (production of the GFP marker) by addition of the agarose-immobilized benzoate derivative to the fungal protoplasts was scored. […]

O=C(O)c1ccccc1 [benzoic acid]
induction of transcription of the bphA gene (bphA gene; 8 mM inducer, RNA blot (FIG. 4)): induced
benzoic acid concentrations as low as ... induce transcription of the bphA gene (bphA gene; concentration curves): 0.8 mM
GFP fluorescence in the BRE-GFP transformed line (BRE): induced GFP fluorescence
